Measurements from patent US7432397B2, “Imaging compounds” (Hammersmith Imanet Ltd., priority 2002, dated 2008).
Marks after values point to notes of the source that are not given here.

Test: Biodistribution of radioactivity in rat tissues after intravenous injection
Format: in vivo
Conditions: for Radioactivity in Entorhinal cortex / Radioactivity in Fat / Radioactivity in Heart (ventricle) / Radioactivity in Hippocampus / Radioactivity in Hypothalamus / Radioactivity in Inferior collicull / Radioactivity in Kidney / Radioactivity in Large intestine / Radioactivity in Lge. intestine content / Radioactivity in Liver / Radioactivity in Lung / Radioactivity in Medulla with Pons / Radioactivity in Olfactory bulbs / Radioactivity in Olfactory tubercles / Radioactivity in Prefrontal cortex / Radioactivity in Skeletal muscle / Radioactivity in Skin / Radioactivity in Sm. intestine content / Radioactivity in Small intestine / Radioactivity in Somatosensory cortex / Radioactivity in Spleen / Radioactivity in Stomach / Radioactivity in Striata / Radioactivity in Superior collicull / Radioactivity in Testis / Radioactivity in Thalamus / Radioactivity in Urine / Radioactivity in Visual cortex / Radioactivity in Plasma / Radioactivity in Whole blood / Radioactivity in Cerebellum: i.v.; for Radioactivity in Plasma / Radioactivity in Whole blood: composite curve of 9 rats
Description: Sixteen adult male Sprague-Dawley rats (body weight 250-320 g: mean±SD=288±25 g) were used in 5 separate experiments. Each rat was injected with ˜13 MBq Compound 1, at a specific activity of […], via a previously catheterised tail vein. The associated stable compound was 0.5±0.2 nmol/kg. Discrete samples of arterial blood were collected from 9 of the rats via a previously catheterised tail artery.
Tissues were sampled post-mortem using an established protocol, as described in Hirani et al, Synapse 42:164-176 (2001). The radioactivity concentration data obtained at 12 times up to 90 min after radioligand injection were normalised for both amount injected and body weight, giving:—‘uptake units’=(cpm/g tissue)/(injected cpm/g body weight).

[1] = period 5 to 90 min after intravenous injection

CSc1cccc(N([11CH3])C(=N)Nc2cc(SC)ccc2Cl)c1 [Compound 1, (N-(2-chloro-5-(methylthio)phenyl)-N′-(3-methylthio)phenyl)-N′-[N-methyl-^11C]-methylguanidine]
Radioactivity in Entorhinal cortex (30 min): 1.31 Uptake Units | Radioactivity in Fat (30 min): 0.71 Uptake Units | Radioactivity in Heart (ventricle) (30 min): 0.99 Uptake Units | Radioactivity in Hippocampus (30 min): 1.32 Uptake Units | Radioactivity in Hypothalamus (30 min): 1.22 Uptake Units | Radioactivity in Inferior collicull (30 min): 1.16 Uptake Units | Radioactivity in Kidney (30 min): 2.85 Uptake Units | Radioactivity in Large intestine (30 min): 1.11 Uptake Units | Radioactivity in Lge. intestine content (30 min): 0.36 Uptake Units | Radioactivity in Liver (30 min): 7.84 Uptake Units | Radioactivity in Lung (30 min): 7.48 Uptake Units | Radioactivity in Medulla with Pons (30 min): 1.26 Uptake Units | Radioactivity in Olfactory bulbs (30 min): 1.10 Uptake Units | Radioactivity in Olfactory tubercles (30 min): 1.24 Uptake Units | Radioactivity in Prefrontal cortex (30 min): 1.51 Uptake Units | Radioactivity in Skeletal muscle (30 min): 0.68 Uptake Units | Radioactivity in Skin (30 min): 0.75 Uptake Units | Radioactivity in Sm. intestine content (30 min): 7.14 Uptake Units | Radioactivity in Small intestine (30 min): 2.30 Uptake Units | Radioactivity in Somatosensory cortex (30 min): 1.37 Uptake Units | Radioactivity in Spleen (30 min): 4.75 Uptake Units | Radioactivity in Stomach (30 min): 1.07 Uptake Units | Radioactivity in Striata (30 min): 1.32 Uptake Units | Radioactivity in Superior collicull (30 min): 1.19 Uptake Units | Radioactivity in Testis (30 min): 0.76 Uptake Units | Radioactivity in Thalamus (30 min): 1.43 Uptake Units | Radioactivity in Urine (30 min): 37.5 Uptake Units | Radioactivity in Visual cortex (30 min): 1.55 Uptake Units | Radioactivity in Plasma (30 min): 0.18 Uptake Units | Radioactivity in Whole blood (30 min): 0.19 Uptake Units | Radioactivity in Cerebellum (40 min): 0.62 Uptake Units | Radioactivity in Entorhinal cortex (40 min): 0.85 Uptake Units | Radioactivity in Fat (40 min): 0.45 Uptake Units | Radioactivity in Heart (ventricle) (40 min): 0.63 Uptake Units | Radioactivity in Hippocampus (40 min): 0.86 Uptake Units | Radioactivity in Hypothalamus (40 min): 0.76 Uptake Units | Radioactivity in Inferior collicull (40 min): 0.64 Uptake Units | Radioactivity in Kidney (40 min): 1.79 Uptake Units | Radioactivity in Large intestine (40 min): 0.66 Uptake Units | Radioactivity in Lge. intestine content (40 min): 0.23 Uptake Units | Radioactivity in Liver (40 min): 5.76 Uptake Units | Radioactivity in Lung (40 min): 3.99 Uptake Units | Radioactivity in Medulla with Pons (40 min): 0.80 Uptake Units | Radioactivity in Olfactory bulbs (40 min): 0.64 Uptake Units | Radioactivity in Olfactory tubercles (40 min): 0.72 Uptake Units | Radioactivity in Prefrontal cortex (40 min): 0.93 Uptake Units | Radioactivity in Skeletal muscle (40 min): 0.61 Uptake Units | Radioactivity in Skin (40 min): 0.39 Uptake Units | Radioactivity in Sm. intestine content (40 min): 3.68 Uptake Units | Radioactivity in Small intestine (40 min): 1.09 Uptake Units | Radioactivity in Somatosensory cortex (40 min): 0.88 Uptake Units | Radioactivity in Spleen (40 min): 2.83 Uptake Units | Radioactivity in Stomach (40 min): 0.45 Uptake Units | Radioactivity in Striata (40 min): 0.84 Uptake Units | Radioactivity in Superior collicull (40 min): 0.65 Uptake Units | Radioactivity in Testis (40 min): 0.74 Uptake Units | Radioactivity in Thalamus (40 min): 0.92 Uptake Units | Radioactivity in Urine (40 min): 27.5 Uptake Units | Radioactivity in Visual cortex (40 min): 0.89 Uptake Units | Radioactivity in Plasma (40 min): 0.16 Uptake Units | Radioactivity in Whole blood (40 min): 0.16 Uptake Units | Radioactivity in Cerebellum (50 min): 0.55 Uptake Units | Radioactivity in Entorhinal cortex (50 min): 0.75 Uptake Units | Radioactivity in Fat (50 min): 0.49 Uptake Units | Radioactivity in Heart (ventricle) (50 min): 0.50 Uptake Units | Radioactivity in Hippocampus (50 min): 0.73 Uptake Units | Radioactivity in Hypothalamus (50 min): 0.61 Uptake Units | Radioactivity in Inferior collicull (50 min): 0.56 Uptake Units | Radioactivity in Kidney (50 min): 1.68 Uptake Units | Radioactivity in Large intestine (50 min): 0.76 Uptake Units | Radioactivity in Lge. intestine content (50 min): 0.35 Uptake Units | Radioactivity in Liver (50 min): 5.01 Uptake Units | Radioactivity in Lung (50 min): 5.30 Uptake Units | Radioactivity in Medulla with Pons (50 min): 0.70 Uptake Units | Radioactivity in Olfactory bulbs (50 min): 0.58 Uptake Units | Radioactivity in Olfactory tubercles (50 min): 0.65 Uptake Units | Radioactivity in Prefrontal cortex (50 min): 0.80 Uptake Units | Radioactivity in Skeletal muscle (50 min): 0.61 Uptake Units | Radioactivity in Skin (50 min): 0.52 Uptake Units | Radioactivity in Sm. intestine content (50 min): 4.03 Uptake Units | Radioactivity in Small intestine (50 min): 1.19 Uptake Units | Radioactivity in Somatosensory cortex (50 min): 0.71 Uptake Units | Radioactivity in Spleen (50 min): 2.95 Uptake Units | Radioactivity in Stomach (50 min): 0.32 Uptake Units | Radioactivity in Striata (50 min): 0.69 Uptake Units | Radioactivity in Superior collicull (50 min): 0.57 Uptake Units | Radioactivity in Testis (50 min): 0.69 Uptake Units | Radioactivity in Thalamus (50 min): 0.85 Uptake Units | Radioactivity in Urine (50 min): 84.5 Uptake Units | Radioactivity in Visual cortex (50 min): 0.72 Uptake Units | Radioactivity in Plasma (50 min): 0.17 Uptake Units | Radioactivity in Whole blood (50 min): 0.16 Uptake Units | Radioactivity in Cerebellum (60 min): 0.54* Uptake Units | Radioactivity in Entorhinal cortex (60 min): 0.73* Uptake Units | Radioactivity in Fat (60 min): 0.79* Uptake Units | Radioactivity in Heart (ventricle) (60 min): 0.59* Uptake Units | Radioactivity in Hippocampus (60 min): 0.76* Uptake Units | Radioactivity in Hypothalamus (60 min): 0.65* Uptake Units | Radioactivity in Inferior collicull (60 min): 0.54* Uptake Units | Radioactivity in Kidney (60 min): 1.87* Uptake Units | Radioactivity in Large intestine (60 min): 1.03* Uptake Units | Radioactivity in Lge. intestine content (60 min): 0.44* Uptake Units | Radioactivity in Liver (60 min): 5.73* Uptake Units | Radioactivity in Lung (60 min): 4.10* Uptake Units | Radioactivity in Medulla with Pons (60 min): 0.67* Uptake Units | Radioactivity in Olfactory bulbs (60 min): 0.55* Uptake Units | Radioactivity in Olfactory tubercles (60 min): 0.65* Uptake Units | Radioactivity in Prefrontal cortex (60 min): 0.77* Uptake Units | Radioactivity in Skeletal muscle (60 min): 0.49* Uptake Units | Radioactivity in Skin (60 min): 0.46* Uptake Units | Radioactivity in Sm. intestine content (60 min): 6.08* Uptake Units | Radioactivity in Small intestine (60 min): 1.29* Uptake Units | Radioactivity in Somatosensory cortex (60 min): 0.68* Uptake Units | Radioactivity in Spleen (60 min): 2.98* Uptake Units | Radioactivity in Stomach (60 min): 0.66* Uptake Units | Radioactivity in Striata (60 min): 0.67* Uptake Units | Radioactivity in Superior collicull (60 min): 0.54* Uptake Units | Radioactivity in Testis (60 min): 0.89* Uptake Units | Radioactivity in Thalamus (60 min): 0.74* Uptake Units | Radioactivity in Urine (60 min): 24.4* Uptake Units | Radioactivity in Visual cortex (60 min): 0.73* Uptake Units | Radioactivity in Plasma (60 min): 0.18 Uptake Units | Radioactivity in Whole blood (60 min): 0.17 Uptake Units | Radioactivity in Cerebellum (70 min): 0.38* Uptake Units | Radioactivity in Entorhinal cortex (70 min): 0.41 Uptake Units | Radioactivity in Fat (70 min): 0.55* Uptake Units | Radioactivity in Heart (ventricle) (70 min): 0.52* Uptake Units | Radioactivity in Hippocampus (70 min): 0.54* Uptake Units | Radioactivity in Hypothalamus (70 min): 0.33 Uptake Units | Radioactivity in Inferior collicull (70 min): 0.39 Uptake Units | Radioactivity in Kidney (70 min): 1.88* Uptake Units | Radioactivity in Large intestine (70 min): 0.76* Uptake Units | Radioactivity in Lge. intestine content (70 min): 0.57* Uptake Units | Radioactivity in Liver (70 min): 6.02* Uptake Units | Radioactivity in Lung (70 min): 4.62* Uptake Units | Radioactivity in Medulla with Pons (70 min): 0.39 Uptake Units | Radioactivity in Olfactory bulbs (70 min): 0.31 Uptake Units | Radioactivity in Olfactory tubercles (70 min): 0.36 Uptake Units | Radioactivity in Prefrontal cortex (70 min): 0.52* Uptake Units | Radioactivity in Skeletal muscle (70 min): 0.44* Uptake Units | Radioactivity in Skin (70 min): 0.47* Uptake Units | Radioactivity in Sm. intestine content (70 min): 5.41* Uptake Units | Radioactivity in Small intestine (70 min): 1.34* Uptake Units | Radioactivity in Somatosensory cortex (70 min): 0.38 Uptake Units | Radioactivity in Spleen (70 min): 2.97* Uptake Units | Radioactivity in Stomach (70 min): 0.96 Uptake Units | Radioactivity in Striata (70 min): 0.46* Uptake Units | Radioactivity in Superior collicull (70 min): 0.28 Uptake Units | Radioactivity in Testis (70 min): 0.74* Uptake Units | Radioactivity in Thalamus (70 min): 0.40 Uptake Units | Radioactivity in Urine (70 min): 16.9* Uptake Units | Radioactivity in Visual cortex (70 min): 0.38 Uptake Units | Radioactivity in Plasma (70 min): 0.20 Uptake Units | Radioactivity in Whole blood (70 min): 0.18 Uptake Units | Radioactivity in Cerebellum (90 min): 0.32* Uptake Units | Radioactivity in Entorhinal cortex (90 min): 0.38* Uptake Units | Radioactivity in Fat (90 min): 0.51* Uptake Units | Radioactivity in Heart (ventricle) (90 min): 0.40* Uptake Units | Radioactivity in Hippocampus (90 min): 0.46* Uptake Units | Radioactivity in Hypothalamus (90 min): 0.35* Uptake Units | Radioactivity in Inferior collicull (90 min): 0.36 Uptake Units | Radioactivity in Kidney (90 min): 1.50* Uptake Units | Radioactivity in Large intestine (90 min): 0.61* Uptake Units | Radioactivity in Lge. intestine content (90 min): 0.66* Uptake Units | Radioactivity in Liver (90 min): 3.85* Uptake Units | Radioactivity in Lung (90 min): 2.62* Uptake Units | Radioactivity in Medulla with Pons (90 min): 0.39* Uptake Units | Radioactivity in Olfactory bulbs (90 min): 0.28* Uptake Units | Radioactivity in Olfactory tubercles (90 min): 0.36* Uptake Units | Radioactivity in Prefrontal cortex (90 min): 0.45* Uptake Units | Radioactivity in Skeletal muscle (90 min): 0.35* Uptake Units | Radioactivity in Skin (90 min): 0.40* Uptake Units | Radioactivity in Sm. intestine content (90 min): 3.66* Uptake Units | Radioactivity in Small intestine (90 min): 0.93* Uptake Units | Radioactivity in Somatosensory cortex (90 min): 0.43* Uptake Units | Radioactivity in Spleen (90 min): 2.07* Uptake Units | Radioactivity in Stomach (90 min): 0.34* Uptake Units | Radioactivity in Striata (90 min): 0.41* Uptake Units | Radioactivity in Superior collicull (90 min): 0.23 Uptake Units | Radioactivity in Testis (90 min): 0.79* Uptake Units | Radioactivity in Thalamus (90 min): 0.42* Uptake Units | Radioactivity in Urine (90 min): 46.4* Uptake Units | Radioactivity in Visual cortex (90 min): 0.44* Uptake Units | Radioactivity in Plasma (90 min): 0.21 Uptake Units | Radioactivity in Whole blood (90 min): 0.18 Uptake Units | radioactivity level in plasma [1]: ~0.2 uptake units | radioactivity level in whole blood [1]: ~0.2 uptake units
